Earlier results in patent US20260198548A1, “AEROSOL-GENERATING ARTICLE WITH AN AVERSIVE FLAVOURANT IN A REMOVABLE WRAPPER” (PHILIP MORRIS PRODUCTS S.A., priority 2022, published 2026).
Where a name gives a salt, the structure may show the parent alone.

System: test panel members (bitter taste)
Conditions: reciprocal of the dilution that still has a bitter taste; quinine hydrochloride reference set at 200,000

Compound	Bitterness value
C[C@@]12C[C@@H](c3ccoc3)OC(=O)[C@@H]1CC[C@]1(C)[C@H]2[C@@H]2C=C[C@@]1(O)C(=O)O2 [Columbin, columbin]	60,000,000
C=C[C@H]1C[N@@]2CC[C@H]1C[C@H]2[C@H](O)c1ccnc2ccc(OC)cc12 [Quinine hydrochloride, quinine hydrochloride]	200,000
COC1=C[C@@H](C)[C@@H]2C[C@H]3OC(=O)C[C@H]4C(C)=C(OC)C(=O)[C@H]([C@@]2(C)C1=O)[C@@]34C [Quassin, quassin]	13,000,000
amarogentin	58,000,000
CC1=C[C@H]2[C@H]3[C@H](C(C)=C4[C@H]5OC(=O)[C@@H](C)[C@@H]5CC[C@](C)(O)[C@@H]43)[C@@]13[C@@H]2[C@@](C)(O)CC[C@H]1[C@H](C)C(=O)O[C@@H]13 [Absinthin, absinthin]	3,000,000
